Like-named read-outs stand apart in the source and are kept apart here. Marks after values point to notes of the source that are not given here.
How the values were obtained:
[1] = target: T1, human A2A adenosine receptor (Homo sapiens, UniProt P29274); set-up: expressed in transfected cells; details: species H (human), cited from earlier work
[2] = target: mouse A2A adenosine receptor (Mus musculus, UniProt Q60613); assay: Competition radioligand binding, mouse A2A AR, HEK293 membranes (Table 1)
[3] = target: T2, human A3 receptor (Homo sapiens, UniProt P0DMS8); assay: Binding assay at the human A3 receptor, CHO membranes (Example 4)
T2 sequence (P0DMS8 1-318): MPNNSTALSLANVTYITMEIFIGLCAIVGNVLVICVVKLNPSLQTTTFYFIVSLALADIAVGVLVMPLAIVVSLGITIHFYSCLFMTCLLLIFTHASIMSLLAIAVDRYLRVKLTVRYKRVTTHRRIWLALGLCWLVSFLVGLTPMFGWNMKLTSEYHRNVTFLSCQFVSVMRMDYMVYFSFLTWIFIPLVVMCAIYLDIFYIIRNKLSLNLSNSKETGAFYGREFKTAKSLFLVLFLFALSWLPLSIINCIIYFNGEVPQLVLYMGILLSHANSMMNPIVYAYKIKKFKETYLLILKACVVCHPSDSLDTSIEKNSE

[4] = target: T3, hA1AR (Homo sapiens, UniProt P30542); assay: Binding at hA1AR, CHO membranes (Example 7); details: read-out: % inhibition hA1
T3 construct: expressed in transfected cells; host or cells: CHO
T3 sequence (P30542 1-326): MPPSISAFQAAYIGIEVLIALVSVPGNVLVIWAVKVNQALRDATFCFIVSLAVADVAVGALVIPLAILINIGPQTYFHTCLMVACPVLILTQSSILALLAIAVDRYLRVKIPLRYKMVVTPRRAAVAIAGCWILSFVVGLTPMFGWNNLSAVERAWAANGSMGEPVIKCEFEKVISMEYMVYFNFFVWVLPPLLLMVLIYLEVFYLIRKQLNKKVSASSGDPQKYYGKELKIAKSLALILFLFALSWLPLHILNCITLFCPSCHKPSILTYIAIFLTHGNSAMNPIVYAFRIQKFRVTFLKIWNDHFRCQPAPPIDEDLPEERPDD

[5] = target: T4, mA1AR (Mus musculus, UniProt Q60612); assay: Competition binding at mA1AR, HEK293 membranes (Example 8); details: percent in parentheses, concentration not given
T4 construct: expressed in transfected cells
T4 sequence (Q60612 1-326): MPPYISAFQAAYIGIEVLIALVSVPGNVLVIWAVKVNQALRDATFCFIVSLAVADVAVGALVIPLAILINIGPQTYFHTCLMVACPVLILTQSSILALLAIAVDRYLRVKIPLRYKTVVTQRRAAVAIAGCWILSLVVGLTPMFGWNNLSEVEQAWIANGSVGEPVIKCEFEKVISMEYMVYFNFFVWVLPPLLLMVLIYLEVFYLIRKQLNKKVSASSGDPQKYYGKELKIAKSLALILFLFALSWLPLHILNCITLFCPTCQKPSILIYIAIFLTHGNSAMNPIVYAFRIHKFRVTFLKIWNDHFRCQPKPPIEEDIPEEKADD

[6] = target: T5, hA2AAR (Homo sapiens, UniProt P29274); assay: Binding at hA2AAR, HEK-293 membranes (Example 7); details: read-out: % inhibition hA2A
T5 construct: expressed in transfected cells
Procedure: After harvesting, cells were homogenized and suspended in PBS.
Nonspecific binding was determined using a final concentration of 10 μM 51 diluted with the buffer.

[7] = target: T6, mA3AR (Mus musculus, UniProt Q61618); assay: Competition binding at mA3AR, HEK293 membranes (Example 8); details: read-out: Affinity (Ki, nM) mA3
T6 construct: expressed in transfected cells
T6 sequence (Q61618 1-319): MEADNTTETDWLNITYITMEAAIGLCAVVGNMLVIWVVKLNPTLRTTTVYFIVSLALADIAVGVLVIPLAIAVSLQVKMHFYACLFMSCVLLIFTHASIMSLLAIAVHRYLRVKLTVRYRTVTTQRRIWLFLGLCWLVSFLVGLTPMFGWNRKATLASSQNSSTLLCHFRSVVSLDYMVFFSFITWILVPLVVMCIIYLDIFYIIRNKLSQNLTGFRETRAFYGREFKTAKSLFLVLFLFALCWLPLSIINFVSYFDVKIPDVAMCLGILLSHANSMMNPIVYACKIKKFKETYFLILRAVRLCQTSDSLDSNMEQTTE

[8] = target: T7, hA3AR (Homo sapiens, UniProt P0DMS8); assay: Binding at hA3AR, CHO membranes (Example 7); details: read-out: Affinity (Ki, nM) hA3
T7 construct: expressed in transfected cells; host or cells: CHO
T7 sequence (P0DMS8 1-318): T2 sequence (P0DMS8 1-318)

[9] = target: T8, mA2AAR (Mus musculus, UniProt Q60613); details: values from Melman et al., cited from earlier work
T8 construct: expressed in transfected cells

[10] = target: T5, hA2AAR; details: cited from earlier work
[11] = target: T1, human A2A adenosine receptor; assay: Radioligand binding, human A2A AR (Table 1); details: species H (human); percent inhibition at 10 μM
[12] = target: T6, mA3AR; details: values from Melman et al.; read-out: Affinity (Ki, nM) mA3; cited from earlier work
[13] = target: T9, rat A3 AR (Rattus norvegicus, UniProt P28647); details: species R (rat); data from Tchilibon et al. / Lee et al.; cited from earlier work
T9 sequence (P28647 1-320): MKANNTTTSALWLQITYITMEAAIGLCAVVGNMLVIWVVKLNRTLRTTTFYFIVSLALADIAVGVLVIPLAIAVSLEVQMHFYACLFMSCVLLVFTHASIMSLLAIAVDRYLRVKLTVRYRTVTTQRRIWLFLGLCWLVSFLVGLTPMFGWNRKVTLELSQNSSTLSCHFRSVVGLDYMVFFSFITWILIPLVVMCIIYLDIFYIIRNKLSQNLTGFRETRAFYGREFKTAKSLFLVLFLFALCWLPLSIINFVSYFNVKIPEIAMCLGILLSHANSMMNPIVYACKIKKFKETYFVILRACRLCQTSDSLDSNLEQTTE

[14] = target: T10, human A1 adenosine receptor (Homo sapiens, UniProt P30542); set-up: expressed in transfected cells; host or cells: CHO; details: species H (human); data from Tchilibon et al. or Kim et al.; cited from earlier work
T10 sequence (P30542 1-326): T3 sequence (P30542 1-326)

[15] = target: T11, mouse A1 adenosine receptor (Mus musculus, UniProt Q60612); assay: Competition radioligand binding, mouse A1 AR, HEK293 membranes (Table 1); details: read-out: A1 Ki; species M (mouse); [125I]I-AB-MECA; mean ± SEM
T11 sequence (Q60612 1-326): T4 sequence (Q60612 1-326)

[16] = target: T3, hA1AR; details: values from the literature (footnotes c, d); read-out: Affinity (Ki, nM) hA1; cited from earlier work
[17] = target: T4, mA1AR; details: values from Melman et al.; read-out: Affinity (Ki, nM) mA1; cited from earlier work
[18] = target: T12, mouse A3 adenosine receptor (Mus musculus, UniProt Q61618); assay: Competition radioligand binding, mouse A3 AR, HEK293 membranes (Table 1); details: read-out: A3 Ki; species M (mouse); [125I]I-AB-MECA
T12 sequence (Q61618 1-319): T6 sequence (Q61618 1-319)

Sequence of mouse A2A adenosine receptor (Q60613 whole entry): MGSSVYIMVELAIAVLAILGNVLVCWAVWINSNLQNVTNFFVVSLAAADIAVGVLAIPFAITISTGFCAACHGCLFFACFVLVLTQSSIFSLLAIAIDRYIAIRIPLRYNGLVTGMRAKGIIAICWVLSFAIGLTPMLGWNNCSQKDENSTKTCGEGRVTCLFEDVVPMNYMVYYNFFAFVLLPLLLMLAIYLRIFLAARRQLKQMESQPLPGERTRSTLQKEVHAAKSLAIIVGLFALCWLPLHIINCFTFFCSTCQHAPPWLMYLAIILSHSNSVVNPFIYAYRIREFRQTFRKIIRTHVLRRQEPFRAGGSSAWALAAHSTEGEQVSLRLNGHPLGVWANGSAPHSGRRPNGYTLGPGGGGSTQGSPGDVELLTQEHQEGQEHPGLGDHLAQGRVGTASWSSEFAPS
T5 sequence (P29274 whole entry): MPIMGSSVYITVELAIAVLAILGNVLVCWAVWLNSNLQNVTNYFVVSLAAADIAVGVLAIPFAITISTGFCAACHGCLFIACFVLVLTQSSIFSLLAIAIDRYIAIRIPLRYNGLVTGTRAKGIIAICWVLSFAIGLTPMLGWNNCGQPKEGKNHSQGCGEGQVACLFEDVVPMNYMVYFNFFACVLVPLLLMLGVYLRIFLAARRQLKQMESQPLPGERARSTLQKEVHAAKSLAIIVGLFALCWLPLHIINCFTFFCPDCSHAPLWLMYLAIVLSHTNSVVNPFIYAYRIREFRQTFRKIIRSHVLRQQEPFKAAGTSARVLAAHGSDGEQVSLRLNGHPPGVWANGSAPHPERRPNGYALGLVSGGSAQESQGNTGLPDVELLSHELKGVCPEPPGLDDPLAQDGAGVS
T1 sequence (P29274 whole entry): as above
T8 sequence (Q60613 whole entry): as the sequence (Q60613 whole entry) above

SMILES	inhibition at 10 µM [4] [%]	% inhibition mA1 [5]	inhibition at 10 µM [6] [%]	Ki [7] [nM]	Ki [8] [nM]	other results
CNC(=O)C12CC1C(n1cnc3c(NCc4cccc(C#CCO)c4)nc(Cl)nc31)C(O)C2O (stereo not drawn) [Compound 16]						A2A % inhib. ([1]; percent inhibition at 10 μM, data from Tchilibon et al.): (56%)^f; inhibition at 100 µM ([2]; read-out: A2A % inhib.): 11%
O[C@@H]1[C@H](O)[C@@H]2C[C@@H]2[C@H]1n1cnc2c(Nc3cccc4ccccc34)nc(Cl)nc21 [Compound 110b, (1′R,2′R,3′S, 4′R,5′S)-4′-[2-Chloro-6-(1-naphthylamino)purine]-2′,3′-O-dihydroxybicyclo[3.1.0]hexane]						binding to the A3AR (in words) [3]: nanomolar binding affinity
CNC(=O)[C@@]12C[C@@H]1[C@@H](n1cnc3c(NCc4cccc(Cl)c4)nc(C#Cc4ccc(N)cc4)nc31)[C@H](O)[C@@H]2O [Compound 332a, (1S,2R,3S,4R,5S)-4-(2-((4-Aminophenyl)ethynyl)-6-(3-chlorobenzylamino)-9H-purin-9-yl)-2,3-dihydroxy-N-methylbicyclo[3.1.0]hexane-1-carboxamide]	2	(93%)	44	17	2.27 ± 0.7	
CNC(=O)[C@@]12C[C@@H]1[C@@H](n1cnc3c(NC)nc(C#Cc4ccc(F)cc4)nc31)[C@H](O)[C@@H]2O [Compound 313, (1S,2R,3S,4R,5S)-4-(2-((4-Fluorophenyl)ethynyl)-6-(methylamino)-9H-purin-9-yl)-2,3-dihydroxy-N-methylbicyclo[3.1.0]hexane-1-carboxamide]	27	(25%)	19	66	0.53 ± 0.09	
CNC(=O)[C@@]12C[C@@H]1[C@@H](n1cnc3c(NC)nc(C#Cc4ccccc4Cl)nc31)[C@H](O)[C@@H]2O [Compound 314, (1S,2R,3S,4R,5S)-4-(2-((2-Chlorophenyl)ethynyl)-6-(methylamino)-9H-purin-9-yl)-2,3-dihydroxy-N-methylbicyclo[3.1.0]hexane-1-carboxamide]	22	(45%)	30	55	0.58 ± 0.04	
CCCC#Cc1nc(NCc2cccc(Cl)c2)c2ncn([C@@H]3[C@H](O)[C@H](O)[C@]4(C(=O)NC)C[C@H]34)c2n1 [Compound 5, (1′S,2′R,3′S,4′S,5′S)-4′-[6-(3-Chlorobenzylamino)-2-(1-pentynyl)-9-yl]-2′,3′-dihydroxybicyclo[3.1.0]hexane-1′-carboxylic acid N-methylamide]						% inhibition mA2A ([9]; concentration not defined (mark ^1)): (42%)^1; % inhibition hA2A ([10]; inhibition of radioligand binding at 10 μM, values from the literature): (80%); A2A % inhib. [11]: (80%)^f; A2A % inhib. ([2]; species M (mouse), percent inhibition at 100 μM): (42%)^i
CNC(=O)[C@@]12C[C@@H]1[C@@H](n1cnc3c(NCc4cccc(Cl)c4)nc(Cl)nc31)[C@H](O)[C@@H]2O [Compound 13]						Ki [12]: 1.49 ± 0.46 nM; Ki [13]: 1 nM; Ki [14]: 260 ± 60 nM; Ki ([9]; read-out: Affinity (Ki, nM) mA2A): 10400 nM; Ki ([10]; values from the literature (footnotes c, d), read-out: Affinity (Ki, nM) hA2A): 2300 ± 100 nM; Ki ([1]; data from Tchilibon et al. or Kim et al.): 2300 ± 100 nM; Ki ([2]; read-out: A2A Ki, species M (mouse), [3H]CGS21680): 10400 ± 1700 nM; Ki [15]: 15.3 ± 5.8 nM; Ki [16]: 260 ± 60 nM; Ki [17]: 15.3 ± 5.8 nM; Ki [18]: 1.49 ± 0.46 nM

More lines, main results first:

inhibition at 10 µM [4] [%]	% inhibition mA1 [5]	inhibition at 10 µM [6] [%]	Ki [7] [nM]	Ki [8] [nM]	SMILES	other results
	(28%)	0	22	3.06 ± 1.35	CNC(=O)[C@@]12C[C@@H]1[C@@H](n1cnc3c(NCc4cccc(Cl)c4)nc(C#Cc4ccc(-c5ccccc5)cc4)nc31)[C@H](O)[C@@H]2O [Compound 335, (1S,2R,3S,4R,5S)-4-(2-(Biphenyl-4-ylethynyl)-6-(3-chlorobenzylamino)-9H-purin-9-yl)-2,3-dihydroxy-N-methylbicyclo[3.1.0]hexane-1-carboxamide]	
20	(36%)	52	7.5	1.92 ± 0.57	CNC(=O)[C@@]12C[C@@H]1[C@@H](n1cnc3c(NCc4cccc(Cl)c4)nc(C#Cc4ccccc4Cl)nc31)[C@H](O)[C@@H]2O [Compound 329, (1S,2R,3S,4R,5S)-4-(6-(3-Chlorobenzylamino)-2-((2-chlorophenyl)ethynyl)-9H-purin-9-yl)-2,3-dihydroxy-N-methylbicyclo[3.1.0]hexane-1-carboxamide]	

Source: patent US8916570B2 (The United States of America, as represented by the …, priority 2008, dated 2014)
